# pIC50: −log10 of the molar value. Read-outs that look alike come from different tables or passages of the source.
# What was measured:
# S. aureus PlsY (SaPlsY) [1] = biological target: T1, S. aureus PlsY (SaPlsY) (Staphylococcus aureus, UniProt P67164); test: biochemical; assay type: E. coli FB23281 (delta plsY) membranes
# T1 sequence (P67164 1-202): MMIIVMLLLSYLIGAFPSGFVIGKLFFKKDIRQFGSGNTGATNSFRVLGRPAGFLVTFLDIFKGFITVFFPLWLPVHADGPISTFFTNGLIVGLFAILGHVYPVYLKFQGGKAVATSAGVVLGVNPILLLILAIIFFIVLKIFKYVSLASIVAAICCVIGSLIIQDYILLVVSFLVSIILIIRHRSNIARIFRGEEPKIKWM
# S. pneumoniae R6 = test: microbe, parasite or virus in culture; conditions: Streptococcus pneumoniae, R6, read-out: MIC
# S. aureus PlsY (SaPlsY) [2] = biological target: T1, S. aureus PlsY (SaPlsY); test: biochemical; assay type: E. coli FB23281 (delta plsY) membranes; remark: listed apart in the source
Compound,MIC (S. pneumoniae R6) [µg/mL],further results
CCCCCCCCCCCCCCCC(=O)NS(=O)(=O)OC1CCNCC1 [compound 6],–,pIC50 (S. aureus PlsY (SaPlsY) [1]): < 4.00
"CCCCCCCCCCCCCCCC(=O)NS(=O)(=O)Oc1ccc(CC(=O)OC)cc1 [compound 14, Methyl 2-(4-(N-palmitoylsulfamoyloxy)phenyl)acetate]",100,–
"CCCCCCCCCCCCCCCC(=O)NS(=O)(=O)Oc1ccc(C(=O)OCC)cc1 [compound 15, Ethyl 4-(N-palmitoylsulfamoyloxy)benzoate]",200,–
CCCCCCCCCCCCCCCC(=O)NS(=O)(=O)Oc1ccc(CCN)cc1 [compound 16],–,pIC50 (S. aureus PlsY (SaPlsY) [2]): < 4.00
"CCCCCCCCCCCCCCCC(=O)NS(=O)(=O)Oc1ccc(-c2ccc([N+](=O)[O-])cc2)cc1 [compound 18, 4'-nitrobiphenyl-4-yl palmitoylsulfamate]",100,–
"CCCCCCCCCCCCCCCC(=O)NS(=O)(=O)Oc1ccc2c(c1)OCO2 [compound 19, Benzo[d][1,3]dioxol-5-yl palmitoylsulfamate]",200,–
"CCCCCCCCCCCCCCCC(=O)NS(=O)(=O)Oc1ccc2ncccc2c1 [compound 20, Quinolin-6-yl palmitoylsulfamate]",> 200,–
CCCCCCCCCCCCCCCC(=O)NS(=O)(=O)Oc1ccc2c(OS(N)(=O)=O)coc2c1 [compound 21],> 200,–
